Columns and labels:
basophils = test: Basophil activation (CD63 FACS) after allergen stimulation, BTKi added before or after; format: cell-based, human; details: BTKi 1000 or 5000 nM added before or 1, 5, 15, 30 min after allergen stimulation; vs water control
Experimental: PBMCs were isolated from heparinized blood using Leucoseptubes (Greiner 227390) with Lymfoprep (Fresenius Kabi 1114547). Following isolation, the cells were washed and resuspended in RPMI 0.5% HSA (RPMI 1640 Gibco 72400-021, HSA Sigma A8763) to 0.25× original blood volume. 2 ng/ml of cytokine IL-3 (RD Peprotec cat nr 200-03) was added to the cells for Basophil priming with final 1 ng/ml. 50 μl of the cell suspension was used for each test, corresponding to 200 μl blood.
The test can be carried out with any BTKi. In the present example, the following BTKis were tested: • Acalabrutinib (Cat A-7337, 100 mM in DMSO) was diluted in RPMI 0.5% HSA to a concentration of 10,000 and 2,000 nM. • Ibrutinib was diluted in RPMI 0.5% HSA to a concentration of 20.000, 5.000 and 1.000 nM. • Branebrutinib was diluted in RPMI 0.5% HSA to a concentration of 20.000 and 5.000 nM. • Remibrutinib was diluted in RPMI 0.5% HSA to a concentration of 20.000 and 5.000 nM. • Pirtobrutinib was diluted in RPMI 0.5% HSA to a concentration of 20.000 and 5.000 nM.
Allergens: Grass pollen extract of the species Phleum pratense (ALK) was diluted in RPMI 0.5%-HSA to five concentrations of 100, 10, 1.0, 0.1 and 0.01 ng/ml. House dust mite allergen extract of the species Dermatophagoides pterinussinus (Derp ex) were made in concentrations of 0.1, 1 and 10 ug/ml by dilution in RPMI 0.5% HSA.
The experiment was performed in 96 deep-well plates. 50 μl cell suspension (as described above) was added to each well. 50 μl activation stimuli and 100 μl BTK inhibitor or buffer were added at different time points (t=0 min, 5 min, 15 min or 30 min). Following addition of the components, the plate was incubated at 37° C. water bath for one hour. After incubation, the activation was stopped by adding 500 μl FACS FLOW (BD342003), 0.5% BSA (Fisher scientific BP9703-100)+10 mM EDTA (Invitrogen 15575-038). The plate was centrifuged for 5 min, at 600×G and 4° C. Supernatants were harvested and used for measurement of histamine by ELISA (supplier). Cell pellets were further washed and stained for FACS analysis with CD63 FITC (BD 557288) CD203c APC (e-bio) and CD123 PE (BD340545) using standard FACS staining procedure, 30 min on ice protected from light, followed by fixation with Cell Fix (BD) before analysis on Fortessa flowcytometer. Flowcytometer data was analyzed using FlowJo software and statistical data from here used for data analysis.

ex-vivo blood basophils = details: leukemia patient treated with ibrutinib; cited from earlier work
[1] = test system: mast cell and basophil reactivity to food; details: ibrutinib daily for up to seven days before allergen exposure; cited from earlier work
basophil cells = details: pretreatment of basophil cells before allergen exposure; cited from earlier work
JAK2/STAT3 pathway = details: cited from earlier work

CC#CC(=O)N[C@H]1CCCN(c2c(F)cc(C(N)=O)c3[nH]c(C)c(C)c23)C1 [Branebrutinib, 4-[(3S)-3-(but-2-ynoylamino)piperidin-1-yl]-5-fluoro-2,3-dimethyl-1H-indole-7-carboxamide]
activation of cells after stimulation with an allergen (percent activation of basophils) (basophils): able to decrease the activation of cells

C=CC(=O)N1CCC[C@@H](n2nc(-c3ccc(Oc4ccccc4)cc3)c3c(N)ncnc32)C1 [Ibrutinib, 1-[(3R)-3-[4-amino-3-(4-phenoxyphenyl)-1H-pyrazolo[3,4-d]pyrimidin-1-yl]-1-piperidinyl]-2-propen-1-one]
activation of cells after stimulation with an allergen (percent activation of basophils) (basophils): able to decrease the activation of cells
IgE-dependent histamine release in ex-vivo blood basophils (ex-vivo blood basophils): largely suppressed
mast cell and basophil reactivity to food (SPT, BAT) [1]: can reduce mast cell and basophil reactivity
IgE-mediated histamine release (basophil cells): inhibit IgE-mediated histamine release
inhibition of JAK2/STAT3 pathway induced by Concavalin A (JAK2/STAT3 pathway): able to inhibit

COc1ccc(F)cc1C(=O)NCc1ccc(-c2nn([C@@H](C)C(F)(F)F)c(N)c2C(N)=O)cc1 [Pirtobrutinib, 5-amino-3-[4-[[(5-fluoro-2-methoxybenzoyl)amino]methyl]phenyl]-1-[(2S)-1,1,1-trifluoropropan-2-yl]pyrazole-4-carboxamide]
activation of cells after stimulation with an allergen (percent activation of basophils) (basophils): able to decrease the activation of cells

C=CC(=O)N(C)CCOc1c(N)ncnc1-c1cc(F)cc(NC(=O)c2ccc(C3CC3)cc2F)c1C [Remibrutinib, N-[3-[6-amino-5-[2-[methyl(prop-2-enoyl)amino]ethoxy]pyrimidin-4-yl]-5-fluoro-2-methylphenyl]-4-cyclopropyl-2-fluorobenzamide]
activation of cells after stimulation with an allergen (percent activation of basophils) (basophils): able to decrease the activation of cells

Reference: patent publication US20250295655A1, “BRUTON'S KINASE INHIBITORS FOR THE TREATMENT OF A SUDDEN ALLERGIC REACTION” (ALK-ABELLÓ A/S, priority 2022, published 2025)
